Some results are limits rather than exact numbers.

In experiment [1] the test system is MSCs. The experiment in a line: Flow cytometry of MSC surface marker expression. Conditions: bare TCP, media with only this growth factor, 7 days post-seeding. The experiment is classed as cell-based, Human. The procedure: MSCs cultured for 5 or 7 days in various media formulations and on bare or protein-coated tissue culture wells were trypsinised and pelleted. The cell pellets were washed with 0.22 μm filtered FACS buffer (5% v/v FBS in PBS) and re-centrifuged at 270 g for 5 min. The cells were resuspended in FACS buffer to a concentration of 100,000 cells in 100 μL total volume, and probed for MSC marker expression using the Human Mesenchymal Stem Cell Verification Flow Kit (R&D Systems®). Isotype and unstained control samples were prepared using MSCs cultured in standard growth media on tissue culture plastic. Cells were analyzed using a BD™ Biosciences LSR II Flow Cytometer System. Singlet cells were determined by their forward scatter-to-side scatter and scatter height-to-width ratios, while viable cells were identified by exclusion of 1:20 propidium iodide. Only singlet, viable cells were analyzed for marker expression.
For orientation: Flow cytometry measures light scatter and fluorescence of single cells or particles in a stream.

The test system of experiment [2] is Human bone marrow-derived MSCs. The experiment in a line: MSC proliferation (crystal violet cell abundance). The class given is cell-based. The protocol: Human bone marrow-derived MSCs obtained from American Type Culture Collection (ATCC) were cultured in normal media, which consists of Alpha-Minimum Essential Medium (α-MEM) (Lonza) with 10% (v/v) FBS (Life Technologies) and 2.4 mM L-glutamine (Lonza), at 37° C. in a humidified normoxic incubator up to a maximum of 10 population doublings. Where indicated, the normal media was supplemented with 15 ng/mL IGF-1 (Life Technologies) and/or […] bFGF (Life Technologies), equivalent to the growth factor concentrations in the ATCC-recommended media. Cells were passaged once they reach 70-80% confluence.
Where indicated, tissue culture plastic wells were coated with 20 μg/mL recombinant human tropoelastin (Elastagen) or 2 μg/mL fibronectin (Sigma-Aldrich®) in PBS (10 mM phosphate, 150 mM NaCl, pH 7.4) at 4° C. overnight. The protein solution was removed, and wells were washed three times with PBS to remove unbound protein prior to cell seeding.
[…] To prevent protein adhesion on the tissue culture substrate, wells were pre-incubated with normal media for 5 hours to enable surface blocking by serum proteins prior to cell seeding in supplemented media.
(§1) Sub-confluent flasks of MSCs were treated with 0.05% (v/v) trypsin-EDTA (Sigma-Aldrich®) at 37° C. for 5 min to lift off adherent cells from the culture vessel. Trypsin was neutralized with two volumes of serum-containing growth media. Cells were centrifuged at 270 g for 5 min and resuspended in the required media. Cells were seeded at a density of 5000 cells/cm^2 on bare or protein-coated tissue culture plastic wells, in normal or supplemented media. Media was changed every 2 days. After specific time points, cells were fixed with 3% (v/v) formaldehyde at room temperature for 20 min, washed with PBS, then stained with 0.1% (w/v) crystal violet in 0.2 M MES buffer for 1 hour. Excess stain was washed off four times with reverse osmosis water. The retained stain was solubilized with 10% (v/v) acetic acid and sample absorbance values indicative of cell abundance were read at 570 nm. Sample absorbance values were subtracted by baseline values (corresponding to cell numbers in serum-free media, or cell numbers on day 1 post-seeding) and expressed as a fraction of the highest absorbance among all samples on day 7 post-seeding.

A further experiment concerns the target integrins on MSCs. Nature of the experiment: cell-based or functional assay.
For experiment [3], the system named is MSCs. The experiment in a line: MSC proliferation with integrin, FGFR, FAK and PKB/AKT inhibitors. The settings on record: for reduction of tropoelastin-mediated proliferation: downstream signaling inhibitor, 7 days. The experiment is classed as cell-based, Human. The procedure:
as §1
To block specific integrin activity, up to 20 μg/mL of anti-αv or anti-αvβ3 integrin antibodies (Abcam®), or up to 1:250 dilution of anti-αvβ5 integrin antibody (Abcam®) was added to the media during MSC spreading or proliferation assays. […] An anti-β8 integrin (5 μg/mL) (Abcam®) or a non-specific mouse IgG (5 μg/mL) (Sigma-Aldrich®) were also included as negative antibody controls. […] The integrin and FGFR inhibitors were replenished during every media change.

The subject of experiment [4] is MSCs. Nature of the experiment: MSC attachment to substrate-bound tropoelastin (EDTA inhibition, cation add-back). The class given is cell-based, Human. Conditions: 5 mM. The procedure: MSCs were seeded at a density of 1.5×10^5 cells/cm^2 on tropoelastin-coated wells in serum-free α-MEM containing 0-9 mM ethylenediaminetetraacetic acid (EDTA) (Sigma-Aldrich®). The cells were incubated for 1 hour at 37° C., then washed with PBS to remove unbound cells. Bound cells were fixed, stained and measured for absorbance at 570 nm as described for the proliferation assays. The percentage of cell attachment was determined relative to a set of standards with known cell numbers.
MSCs were washed with cation-free PBS, centrifuged at 270 g for 5 min, and resuspended in cation-free PBS. The cells were seeded at a density of 1.5×10^5 cells/cm^2 on tropoelastin-coated wells in the presence of 0-0.5 mM cation (Mg^2+, Ca^2+ or Mn^2+) and incubated for 45 min at 37° C. Bound cells were fixed and stained, and cell attachment was quantified as previously described.

Experiment [5] has as its system MSCs. The experiment in a line: MSC spreading with integrin-blocking antibodies. The experiment is classed as cell-based, Human. Conditions: no antibody. The procedure: Cells were fixed and visualized by phase contrast microscopy with a Zeiss Axio Vert.A1 microscope. Images were taken on an AxioCam ICml monochrome camera. […] Cell spreading was quantified by counting the percentage of spread cells in each field of view. Three fields of view were obtained for each sample replicate.
To block specific integrin activity, up to 20 μg/mL of anti-αv or anti-αvβ3 integrin antibodies (Abcam®), or up to 1:250 dilution of anti-αvβ5 integrin antibody (Abcam®) was added to the media during MSC spreading or proliferation assays. Optimal inhibitory concentrations were selected for the anti-αv (5 μg/mL), anti-αvβ3 (5 μg/mL), and anti-αvβ5 (1:500 dilution) integrin antibodies. An anti-β8 integrin (5 μg/mL) (Abcam®) or a non-specific mouse IgG (5 μg/mL) (Sigma-Aldrich®) were also included as negative antibody controls. To block FGFR activity, up to 20 μM of the SU-5402 FGFR inhibitor (Sigma-Aldrich®) was added to the media during MSC proliferation. The integrin and FGFR inhibitors were replenished during every media change.

Sequence of recombinant human tropoelastin (Elastagen) (P15502 other isoform, or with tags, fused parts or gaps limits assumed): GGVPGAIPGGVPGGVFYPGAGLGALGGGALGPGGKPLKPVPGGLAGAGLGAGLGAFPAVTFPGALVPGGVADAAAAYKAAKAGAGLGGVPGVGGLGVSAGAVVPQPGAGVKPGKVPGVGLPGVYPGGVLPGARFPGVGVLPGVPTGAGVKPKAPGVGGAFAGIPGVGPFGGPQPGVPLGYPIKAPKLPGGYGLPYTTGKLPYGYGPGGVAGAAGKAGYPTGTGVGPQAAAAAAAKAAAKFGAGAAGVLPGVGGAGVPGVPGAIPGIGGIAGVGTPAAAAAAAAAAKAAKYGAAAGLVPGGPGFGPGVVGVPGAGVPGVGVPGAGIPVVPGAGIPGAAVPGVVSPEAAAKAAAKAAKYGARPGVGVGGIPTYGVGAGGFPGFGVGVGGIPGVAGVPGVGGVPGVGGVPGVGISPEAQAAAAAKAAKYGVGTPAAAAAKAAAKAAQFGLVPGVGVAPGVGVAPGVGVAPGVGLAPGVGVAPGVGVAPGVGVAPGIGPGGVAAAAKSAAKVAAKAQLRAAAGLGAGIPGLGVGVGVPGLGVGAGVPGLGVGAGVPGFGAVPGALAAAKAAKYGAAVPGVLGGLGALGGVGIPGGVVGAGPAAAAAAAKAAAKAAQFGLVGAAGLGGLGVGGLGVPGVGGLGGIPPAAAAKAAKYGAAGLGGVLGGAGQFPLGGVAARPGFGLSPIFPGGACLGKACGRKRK

As for “IGF-1: insulin-like growth factor-1 (Life Technologies), media supplement [reference compound]”, in the experiment on MSCs [1], the “cells expressing CD73” value is on record as 89.1±0.1% and the “cells positive for CD105” value came to 83.9±0.7%. Also, the “MSC numbers compared to normal media” value in experiment [2] (media supplementation with IGF-1 alone) is reported as “did not increase MSC numbers”.

Consider “recombinant human tropoelastin (Elastagen) (from UniProt P15502 27-724) (ligand)”, for which, in the experiment with integrins on MSCs, the MSC adhesion to tropoelastin after addition of up to 0.5 mM Ca2+ is 13.7%, the MSC adhesion to tropoelastin after addition of up to 0.5 mM Mg2+ is 51.8%, the MSC adhesion to tropoelastin after addition of up to 0.5 mM Mn2+ turned out to be 76.1% and the MSC adhesion to tropoelastin in a cation-free environment was 20%. In addition, the reduction of MSC attachment to substrate-bound tropoelastin in the presence of 5 mM EDTA with integrins on MSCs was found to be 48.9%.

Regarding `Nc1cc(N)c(N)cc1N` [FAK inhibitor 14], the “reduction of tropoelastin-mediated proliferation” value in the experiment on MSCs [3] is 50.7±2.0%.

Consider `O=C(O)CN(CCN(CC(=O)O)CC(=O)O)CC(=O)O` [EDTA, ethylenediaminetetraacetic acid, reference compound], for which the “reduction of MSC binding to tropoelastin” value in the experiment with MSCs [4] is 48.9±0.5%.

Take “bFGF: basic fibroblast growth factor (Life Technologies), media supplement [reference compound]”: the “cells positive for CD105” value in the experiment on MSCs [1] was 92.9±5.9%.

As for `CCCCCCCCCCCCCCCCCCOP(=O)([O-])OC1CC[N+](C)(C)CC1` [perifosine], in the experiment on MSCs [3], the “reduction of tropoelastin-mediated proliferation” value is listed as 21.3±0.5%.

With `Cc1c[nH]c(/C=C2\C(=O)Nc3ccccc32)c1CCC(=O)O` [SU-5402], the “reduction in overall cell numbers compared to no inhibitor control” value with MSCs [3] (bFGF-supplemented media, over 7 days) is listed as not above 78.9±0.7%.

Regarding fibronectin [reference compound], the “decrease in MSC proliferation on coated surface following serum reduction” value in experiment [2] (20% reduction in serum, after 7 days) was determined as 15±0.1%. For the same molecule, the “inhibition of MSC proliferation on coated TCP compared to normal media” value in experiment [2] (40% decrease in serum, after 7 days) was found to be 25±1%. In addition, the “coating concentration that promoted MSC expansion” value in experiment [2] (coated on the substratum) is not below 2 µg/mL. For the same molecule, the “serum reduction at which MSC numbers significantly decreased” value in experiment [2] (coated surface, until 3 days post-seeding) is “completely absent”. Moreover, in experiment [2] (full serum media), the “MSC propagation of fibronectin coating relative to tropoelastin coating” value is recorded as “equally promoted”. The “stimulation of MSC proliferation above normal media” value in experiment [2] (in solution in media, up to 7 days) is recorded as “did not trigger any proliferative response”. For the same molecule, the “cell spreading on fibronectin” value in the experiment with MSCs [5] came to 92.5±2.6%.

For the origin of these results see US20190275087A1, “EXPANSION AND DIFFERENTIATION OF STEM CELLS” (Allergan Pharmaceuticals International Limited, priority 2018, published 2019).
